IC50 data for 13 molecules are collected here from US9969724B2, “Factor IXa inhibitors” (Merck Sharp & Dohme Corp., priority 2014, dated 2018).

The test addresses human factor IXa (Homo sapiens (Human), UniProt P00740). The test is described as follows: Determination of Inhibitory Activity Against Factor IXa. To be noted: Factor IXa enzyme assay human; read-out: FIXa IC50. It is filed as biochemical. On the procedure:
Inhibitory activity against factor IXa was tested using the substrate SPECTROFLUOR FIXa (american diagnostica inc.; 500 West Avenue, Stamford, Conn. 06902 USA; Pr. No. 299F) and human factor IXa (american diagnostica inc.; Pr. No. 449b). Test substances were dissolved in buffer A (50 mM α,α,α-tris(hydroxymethyl) methylamine (Tris), 100 mM NaCl, 5 mM CaCl2, 15% (v/v) ethylene glycol, pH 8.0) were mixed with factor IXa (0.1 μg/ml final concentration). The enzyme reaction was started by addition of SPECTROFLUOR FIXa (100 μM final concentration). After incubation for 60 minutes at room temperature, the reaction was stopped by the addition of 20% (v/v) acetic acid solution, and then the fluorescence value was measured (Excitation Wavelength: 355 nm, Emission Wavelength; 460 nm) in a microtiter plate reader (ARVO 1420 Multilabel Counter; PerkinElmer).
The IC50 was calculated from a dilution series of the test substance with the aid of the software, Symyx Assay Explorer (Symyx Technologies, Inc.).

Sequence of human factor IXa (P00740 227-461): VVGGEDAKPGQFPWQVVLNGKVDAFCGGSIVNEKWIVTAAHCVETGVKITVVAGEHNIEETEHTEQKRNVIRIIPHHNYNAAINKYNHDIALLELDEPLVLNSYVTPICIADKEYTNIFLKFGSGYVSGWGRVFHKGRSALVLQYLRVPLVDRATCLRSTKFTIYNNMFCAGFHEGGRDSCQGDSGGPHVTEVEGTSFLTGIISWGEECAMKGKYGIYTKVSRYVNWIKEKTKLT
Sequence of human factor IXa (P00740 47-191 partner): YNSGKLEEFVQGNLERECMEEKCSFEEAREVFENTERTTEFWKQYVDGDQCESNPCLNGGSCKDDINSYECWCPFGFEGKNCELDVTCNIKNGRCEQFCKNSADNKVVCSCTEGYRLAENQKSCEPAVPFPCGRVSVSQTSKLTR

As usually defined, the IC50 is the concentration at which inhibition is half-maximal. Turning to `Cc1cc2c(N)noc2c(N2CC[C@@H](NC(=O)c3ccc(-n4cc(CCO)nn4)cc3Cl)C2)n1` [Example 42, (R)—N-(1-(3-Amino-5-methylisoxazolo[5,4-c]pyridin-7-yl)pyrrolidin-3-yl)-2-chloro-4-(4-(2-hydroxyethyl)-1H-1,2,3-triazol-1-yl)benzamide], the IC50 was no more than 100 nM.

For the molecule `Cc1cc(N2CCC(NC(=O)c3c(Cl)cc(-n4cnc(C)n4)cc3Cl)C2)c2onc(N)c2c1` (stereo not shown) [Example 6, N-(1-(3-Amino-5-methylbenzo[d]isoxazol-7-yl)pyrrolidin-3-yl)-2,6-dichloro-4-(3-methyl-1H-1,2,4-triazol-1-yl)benzamide], the IC50 was no more than 100 nM.

Take `Nc1noc2c(N3CC[C@@H](NC(=O)c4ccc(-n5cnn(CC(F)(F)F)c5=O)cc4Cl)C3)ncc(Cl)c12` [Example 50, (R)—N-(1-(3-Amino-4-chloroisoxazolo[5,4-c]pyridin-7-yl)pyrrolidin-3-yl)-2-chloro-4-(5-oxo-1-(2,2,2-trifluoroethyl)-1,5-dihydro-4H-1,2,4-triazol-4-yl)benzamide]: the IC50 is no more than 100 nM.

Take `Cn1cc(-c2ccc(C(=O)N[C@@H]3CCN(c4ncc(Cl)c5c(N)noc45)C3)c(Cl)c2)cnc1=O` [Example 44, (R)—N-(1-(3-Amino-4-chloroisoxazolo[5,4-c]pyridin-7-yl)pyrrolidin-3-yl)-2-chloro-4-(1-methyl-2-oxo-1,2-dihydropyrimidin-5-yl)benzamide]: the IC50 is no more than 100 nM.

For the molecule `Nc1noc2c(N3CC[C@@H](NC(=O)c4ccc(-n5cnc6cncnc65)cc4Cl)C3)ncc(Cl)c12` [Example 48, (R)—N-(1-(3-Amino-4-chloroisoxazolo[5,4-c]pyridin-7-yl)pyrrolidin-3-yl)-2-chloro-4-(9H-purin-9-yl)benzamide], the 50% inhibitory concentration (IC50) is no more than 100 nM.

Turning to `Cc1ncn(-c2cnc(C(=O)N[C@@H]3CCN(c4ncc(Cl)c5c(N)noc45)C3)c(Cl)c2)n1` [Example 52, (R)—N-(1-(3-Amino-4-chloroisoxazolo[5,4-c]pyridin-7-yl)pyrrolidin-3-yl)-3-chloro-5-(3-methyl-1H-1,2,4-triazol-1-yl)picolinamide], the IC50 was in the range of 100 to 1000 nM.

Regarding `Cc1ncn(-c2ccc(C(=O)N[C@@H]3CCN(c4ncc(Cl)c5c(N)noc45)C3)c(Cl)c2)n1` [Example 11, (R)—N-(1-(3-Amino-4-chloroisoxazolo[5,4-c]pyridin-7-yl)pyrrolidin-3-yl)-2-chloro-4-(3-methyl-1H-1,2,4-triazol-1-yl)benzamide], the IC50 is no more than 100 nM.

Turning to `Nc1noc2c(N3CC[C@@H](NC(=O)c4ccc(-n5cnn(CCO)c5=O)cc4Cl)C3)ncc(Cl)c12` [Example 47, (R)—N-(1-(3-Amino-4-chloroisoxazolo[5,4-c]pyridin-7-yl)pyrrolidin-3-yl)-2-chloro-4-(1-(2-hydroxyethyl)-5-oxo-1,5-dihydro-4H-1,2,4-triazol-4-yl)benzamide], the IC50 was no more than 100 nM.

As to `Nc1noc2c(N3CC[C@@H](NC(=O)c4ccc(-c5cncnc5)cc4Cl)C3)ncc(Cl)c12` [Example 20, (R)—N-(1-(3-Amino-4-chloroisoxazolo[5,4-c]pyridin-7-yl)pyrrolidin-3-yl)-2-chloro-4-(pyrimidin-5-yl)benzamide], the IC50 was no more than 100 nM.

Consider `Nc1noc2c(N3CC[C@@H](NC(=O)c4ccc(-n5cnc(CO)n5)cc4Cl)C3)cc(Cl)cc12` [Example 16, (R)—N-(1-(3-Amino-5-chlorobenzo[d]isoxazol-7-yl)pyrrolidin-3-yl)-2-chloro-4-(3-(hydroxymethyl)-1H-1,2,4-triazol-1-yl)benzamide], for which the IC50 is no more than 100 nM.

For `Nc1noc2c(N3CC[C@@H](NC(=O)c4ccc(-c5ccc(=O)n(CC(F)(F)F)c5)cc4Cl)C3)ncc(Cl)c12` [Example 35, (R)—N-(1-(3-Amino-4-chloroisoxazolo[5,4-c]pyridin-7-yl)pyrrolidin-3-yl)-2-chloro-4-(6-oxo-1-(2,2,2-trifluoroethyl)-1,6-dihydropyridin-3-yl)benzamide], the IC50 was no more than 100 nM.

With `Nc1noc2c(N3CCC(NC(=O)c4ccc(-n5cnnc5)cc4Cl)C3)nccc12` (stereo not shown) [Example 5, N-(1-(3-Aminoisoxazolo[5,4-c]pyridin-7-yl)pyrrolidin-3-yl)-2-chloro-4-(4H-1,2,4-triazol-4-yl)benzamide], the IC50 was no more than 100 nM.

For the molecule `Nc1noc2c(N3CC[C@@H](NC(=O)c4ccc(-n5cnc6ncncc65)cc4Cl)C3)ncc(Cl)c12` [Example 51, (R)—N-(1-(3-Amino-4-chloroisoxazolo[5,4-c]pyridin-7-yl)pyrrolidin-3-yl)-2-chloro-4-(7H-purin-7-yl)benzamide], the IC50 was no more than 100 nM.
